Test results taken from US20030086923A1, “Method for the prevention and/or treatment of atherosclerosis” (priority 1999, published 2003).

Columns and labels:
[1] = target: T1, human GST-LXRβ ligand binding domain receptor (Homo sapiens, UniProt P55055); assay: Radioligand competition binding scintillation proximity assay, LXRβ
T1 construct: human LXRβ (amino acids 149-455) were subcloned into the pGEX-KT expression vector; made in house; host or cells: E. coli (pGEX-KT vector)
T1 sequence (P55055 149-455): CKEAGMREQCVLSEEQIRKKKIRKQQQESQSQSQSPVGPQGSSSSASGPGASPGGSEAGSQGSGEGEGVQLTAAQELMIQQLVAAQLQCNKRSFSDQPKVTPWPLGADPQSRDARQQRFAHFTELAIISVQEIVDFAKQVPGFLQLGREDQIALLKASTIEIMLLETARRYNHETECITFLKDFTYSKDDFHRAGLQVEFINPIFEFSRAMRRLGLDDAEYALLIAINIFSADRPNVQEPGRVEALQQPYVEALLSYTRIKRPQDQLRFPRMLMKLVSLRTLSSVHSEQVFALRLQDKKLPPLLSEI
Text: Radioligand Competition Binding Scintillation Proximity Assays:
Preparation of Recombinant Human LXRα and LXRβ:
Human LXRα and LXRβ were expressed as GST-fusion proteins in E. coli. The ligand binding domain cDNAs for human LXRα (amino acids 164-447) and human LXRβ (amino acids 149-455) were subcloned into the pGEX-KT expression vector (Pharmacia). E. coli containing the respective plasmids were propagated, induced, and harvested by centrifugation. The resuspended pellet was broken in a French press and debris was removed by centrifugation. Recombinant human LXR receptors were purified by affinity chromatography on glutathione sepharose and receptor was eluted with glutathione. Glycerol was added to a final concentration of 50% to stabilize the receptor and aliquots were stored at −80° C.
After incubation for ˜16 h at 15° C. with shaking, the assay plates were counted in a Packard Topcount.

human PPARα = target: T2, human PPARα (Homo sapiens, UniProt Q07869); assay: PPARα competition binding assay
T2 sequence (Q07869 1-468): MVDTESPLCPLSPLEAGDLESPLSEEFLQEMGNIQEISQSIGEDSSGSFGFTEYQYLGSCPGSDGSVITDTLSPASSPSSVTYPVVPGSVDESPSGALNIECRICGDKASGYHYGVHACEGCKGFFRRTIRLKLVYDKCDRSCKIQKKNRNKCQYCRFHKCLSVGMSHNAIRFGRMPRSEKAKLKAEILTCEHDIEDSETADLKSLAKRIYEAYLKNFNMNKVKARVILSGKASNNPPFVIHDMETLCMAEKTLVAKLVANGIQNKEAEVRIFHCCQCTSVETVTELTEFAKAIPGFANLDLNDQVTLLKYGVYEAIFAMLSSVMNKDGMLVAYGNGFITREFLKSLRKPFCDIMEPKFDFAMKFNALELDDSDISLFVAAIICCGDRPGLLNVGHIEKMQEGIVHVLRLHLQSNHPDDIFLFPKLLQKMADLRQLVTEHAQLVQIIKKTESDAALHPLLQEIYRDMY
Text: The term ligand throughout this application should be understood to include an agonist, partial agonist or antagonist of LXR. The ligand may be selective for LXRα or LXRβ, or it may have mixed binding affinity for both LXRα and LXRβ. Particularly, compounds within the scope of this invention include those which have greater selectivity as determined by binding affinity for LXRα and/or LXRβ receptors than they have for each of the PPARα, γ and δ receptors.

ABC1 mRNA = assay: Induction of ABC1 mRNA levels in THP-1 macrophages; type: cell-based; details: Homo sapiens, ABC-1, 0.10 μM, 6 hours, vs DMSO control, read-out: Fold Induction of ABC1 mRNA (Mean ± SEM)
Description: Induction of ABC1 mRNA levels
Cultured human THP-1 cells were used. All cell culture incubations were performed at 37° C. under 95% air/5% carbon dioxide. Cells were grown in Complete RPMI medium plus 10% FCS (Fetal Calf Serum). Complete RPMI medium is defined as RPMI medium (Sigma Cat.# R8005) containing […], 1 mM Na Pyruvate, 2 mM L-Glutamine, and Antibiotic-Antimyotic Solution (Sigma Cat.# A9909: 100U/ml Penicillin, 0.1 mg/ml Streptomycin, 0.251l/ml Amphotericin B). Cells were differentiated into macrophages by incubation in Complete RPMI medium plus 10% FCS (Fetal Calf Serum) plus 100 nM tetradecanoyl phorbol acetate for three days. After differentiation, the THP-1 macrophages were incubated in Complete RPMI medium plus 10% FCS (Fetal Calf Serum) with the test LXR agonist. After 6 hours at 37° C., the cells were harvested and total RNA prepared using the phenol/guanidine isothiocyanate method as supplied and described by Molecular Research Center, Inc. (TRI REAGENTφ Cat. No. TR 118). ABC1 mRNA levels in the total RNA were measured using the TaqMan® mRNA quantitation system, following protocols published by the manufacturer (Perkin-Elmer). The oligonucleotide PCR primers used to detect ABC1 were:
The oligonucleotide probe used was:
ABC1 mRNA levels in each sample were normalized to the mRNA levels for the 23 kDa highly basic protein. […]

Which IC50 [1] does the source give for `CC(=O)Oc1ccc2c(c1)[C@@]1(C)CCC[C@](C)(C(=O)OC(=O)[C@@]3(C)CCC[C@]4(C)c5cc(OC(C)=O)ccc5CC[C@@H]34)[C@@H]1CC2` [Compound 1] here?
The IC50 was 40 nM.

And the Ki ([1]; read-out: LXRβ calculated Ki)?
The Ki was roughly 14 nM.

What about the IC50 (human PPARα) of the same compound?
The IC50 was greater than 10000 nM.

What about the fold induction at 0.1 µM (ABC1 mRNA) of the same compound?
Its fold induction at 0.1 µM is 6.9 ± 0.6.
